The text below walks through data of patent US9962341B2, “Active pharmaceutical ingredient (API) comprising cannabinoids for use in the treatment of cancer” (GW Pharma Limited, priority 2014, dated 2018).

Where two headings read alike, the source gives them in different places.

The assay relates to Mia-Pa-Ca-2. Nature of the assay: Cell viability (CellTiter-Blue, 72 h), Mia-Pa-Ca-2 pancreatic cancer cells. It is filed as cell-based. Particulars: Homo sapiens. As to the method:
The following cell lines were tested in this example: Lung Cancer (A549, NCI-H460); Pancreatic cancer (PANC1, Mia-Pa-Ca-2); Melanoma (WM115, A375); Ovarian cancer (OVCAR3, SKOV3); Gastric cancer (MKN45, HGC-27); Renal cancer (ACHN) and Bladder Cancer (RT112).
Each tumour cell line was maintained in vitro in RPMI 1640+10% heat inactivated FBS and 2 mM L-glutamine (growth media) at 37° C. in 5% CO2 and humidified conditions. The cells were harvested, washed, re-suspended into growth medium and counted. The cells were re-suspended into assay media (RPMI 1640+5% heat inactivated FBS+ and 2 mM L-glutamine) at 4×10^4 cells/ml (dependent upon cell type) and plated into the middle 240 wells of 384 well tissue culture plates (Corning CellBind, black-wall plates) 25 μl/well aliquots; 50 μl of growth media was aliquoted into the outer wells. There were 3 plates for each cell line.
The plates were incubated overnight at 37° C., in 5% humidified CO2.
The phytocannabinoid test compounds were prepared in 100% DMSO vehicle at a stock concentration of 20 and 40 mM.
Starting with the 20 mM stock in DMSO, this was serially diluted (2 fold) in DMSO in a 96-well plate, to 20 (no dilution), 10, 5, 2.5, 1.25, 0.625, 0.315, 0.157 and […]. Following this, 10 ul of each compound dilution was diluted into 990 ul of 1% (v/v) FBS media in a deep well block making the final concentrations of 200, 100, 50, 25, 12.5, 6.25, 3.125, 1.56 and 0.79 μM (2× final assay concentrations and 1% DMSO).
An equal volume of each cannabinoid in the combination (stock concentration 40 mM) was mixed together to make a stock of 20 mM of each cannabinoid in DMSO. This was serially diluted (2 fold) in DMSO in a 96-well plate, to 20 (no dilution), 10, 5, 2.5, 1.25, 0.625, 0.315, 0.157 and […]. Following this, 10 ul of each combination dilution was diluted into 990 ul of 1% (v/v) FBS media in a deep well block making the final concentrations of 200, 100, 50, 25, 12.5, 6.25, 3.125, 1.56 and 0.79 μM (2× final assay concentrations and 1% DMSO).
Gemcitabine SOC was prepared in 100% DMSO to give a stock concentration of 20 mM. This was then serially diluted (3 fold) in DMSO in a 96-well plate, to 20 (no dilution), 6.6, 2.2, 0.741, 0.247, 0.082, 0.027, 0.009 and 0.003 mM. Following this, 10 ul of each dilution was further diluted into 990 ul of 1% (v/v) FBS media making the final concentrations of 200 (no dilution), 66.66, 22.22, 7.41, 2.47, 0.82, 0.27, 0.09, 0.03 μM (2× final assay concentrations and 1% DMSO).
The plates were incubated for 72 h at 37° C. in 5% humidified CO2. To develop the plates, at 72 h, 10 μl of CellTiter-Blue™ reagent was added to each test/blank well.
The plates were incubated at 37° C., 5% humidified CO2. Fluorescence was measured using a Flex II Station plate reader (570 nm excitation wavelength, 600 nm emission wavelength, 590 nm cut-off) after 3 h.
The phytocannabinoid compounds CBD, CBGA, CBG, CBDA, THCV and THC were tested on a panel of lung (A549, NCI-H460), pancreatic (PANC1, Mia-Pa-Ca-2), melanoma (WM115, A375), ovarian (OVCAR3, SKOV3), gastric (MKN45, HGC-27), renal (ACHN) and bladder (RT112) cancer cell lines according to the protocol for 72 h in media containing 1% FBS.
The IC50 values for each phytocannabinoid and combination of CBD with the other phytocannabinoids was calculated for each cell line. The raw data values expressed in relative fluorescent units were normalised to the vehicle for each individual plate and any reduction in fluorescence indicated a decrease in viability.
This calculation was as described in Example 1 above.

Where [1] appears, read: MIA PaCa-2, 72 h, read-out: Cell line IC50 value.
Where [2] appears, read: MIA PaCa-2, read-out: Dm (median effect dose).

On to `C=C(C)[C@@H]1CCC(C)=C[C@H]1c1c(O)cc(CCCCC)cc1O` [CBD, Cannabidiol], for which the IC50 reads like this: under setting [1], 2.6 µM; under setting [2], 2 µM.
In the same order, the values of `C=C(C)[C@@H]1CCC(C)=C[C@H]1c1c(O)cc(CCCCC)c(C(=O)O)c1O` [CBDA, Cannabidiolic acid] are 7.9 µM and 7.09 µM.
In the same order, the values of `CCCCCc1cc(O)c(C/C=C(\C)CCC=C(C)C)c(O)c1` [CBG, Cannabigerol] are 2.2 µM and 2.06 µM.
With `CCCCCc1cc(O)c(C/C=C(\C)CCC=C(C)C)c(O)c1C(=O)O` [CBGA, Cannabigerolic acid], the IC50 under setting [1] worked out at 8.9 µM and the IC50 under setting [2] is 8.67 µM.
In the same order, the values of `CCCCCc1cc(O)c2c(c1)OC(C)(C)[C@@H]1CCC(C)=C[C@@H]21` [THC, Tetrahydrocannabinol, reference compound] are 2.9 µM and 2.64 µM.
The matching figures for `CCCc1cc(O)c2c(c1)OC(C)(C)[C@@H]1CCC(C)=C[C@@H]21` [THCV, Tetrahydrocannabivarin]: 5.2 µM and 4.79 µM.
